Values quoted from earlier work as cited in patent publication US12599677B2, “Targeted PH sensitive liposomes” (Northwestern University, priority 2020, dated 2026).

solubility in water: low solubility in water
SMILES: C=C1CC[C@@H]2[C@](C)(CO)[C@H](O)CC[C@@]2(C)[C@@H]1C/C=C1/C(=O)OC[C@H]1O [andrographolide]
